Results taken from ChEMBL document CHEMBL1143953, “Novel 2-phenylquinolin-7-yl-derived imidazo[1,5-a]pyrazines as potent insulin-like growth factor-I receptor (IGF-IR) inhibitors” (Bioorg Med Chem, 2008).
Each block holds one compound with its values, some of them ahead of it.

Legend:
[1] = biological target: Cytochrome P450 3A4 (Homo sapiens, UniProt P08684); assay: Inhibition of CYP3A4; assay type: ADME
[2] = test system: NIH3T3; assay: Antitumor activity in IGFR expressing mouse 3T3 cells xenografted nu/nu CD1 mouse at 75 mg/kg, po administered once daily for 14 days; assay type: functional; settings: CD1, NIH3T3, 336 h, read-out: TGI
[3] = test system: NCI-H358; assay: Inhibition of proliferation of human H358 cells; assay type: functional, cell-based
[4] = Plasma concentration in CD1 mouse at 25 mg/kg, po after 24 hrs; assay type: ADME, organism-based; parameters: dose 25 mg/kg, route oral
[5] = Inhibition of PKA
[6] = biological target: Casein kinase II subunit alpha (Homo sapiens, UniProt P68400); assay: Inhibition of CK2
[7] = Cmax in Beagle dog at 5 mg/kg, po; assay type: ADME, organism-based, Canis lupus familiaris; parameters: dose 5 mg/kg, route oral; settings: in vivo
[8] = Inhibition of proliferation of human Colo699 cells; assay type: functional; settings: COLO 699
[9] = biological target: Aurora kinase A (Homo sapiens, UniProt O14965); assay: Inhibition of AuroraA
[10] = Volume of distribution at steady state in Sprague-Dawley rat at 1 mg/kg, iv; assay type: ADME, organism-based; parameters: dose 1 mg/kg, route intravenous; settings: in vivo, read-out: Vdss
[11] = test system: Mus musculus; assay: Increase in glucose level in CD1 mouse at 100 mg/kg, po 2 hrs after glucose challenge; assay type: functional
[12] = Inhibition of proliferation of human GEO cells; assay type: functional, cell-based
[13] = test system: Mus musculus; assay: Effect on plasma insulin level in CD1 mouse at 100 mg/kg, po after 4 hrs; assay type: functional
[14] = Induction of DNA fragmentation in human Colo699 cells at 10 uM relative to control; assay type: functional
[15] = Plasma concentration in Sprague-Dawley rat at 50 mg/kg, po after 24 hrs; assay type: ADME, organism-based; parameters: dose 50 mg/kg, route oral
[16] = test system: NCI-H358; assay: Induction of DNA fragmentation in human H358 cells at 10 uM relative to control; assay type: functional
[17] = Oral bioavailability in Sprague-Dawley rat at 50 mg/kg; assay type: ADME, organism-based; settings: in vivo
[18] = test system: Mus musculus; assay: Effect on plasma insulin level in CD1 mouse at 50 mg/kg, po after 4 hrs; assay type: functional
[19] = Induction of DNA fragmentation in human GEO cells at 10 uM relative to control; assay type: functional
[20] = Oral bioavailability in CD1 mouse at 25 mg/kg; assay type: ADME, organism-based; settings: in vivo
[21] = test system: Mus musculus; assay: Increase in blood glucose level in CD1 mouse at 50 mg/kg, po for 14 days; assay type: functional
[22] = Volume of distribution at steady state in CD1 mouse at 5 mg/kg, iv; assay type: ADME, organism-based; parameters: dose 5 mg/kg, route intravenous; settings: in vivo, read-out: Vdss
[23] = biological target: Mitogen-activated protein kinase 10 (Homo sapiens, UniProt P53779); assay: Inhibition of JNK3
[24] = AUC (0 to infinity) in CD1 mouse at 25 mg/kg, po; assay type: ADME, organism-based; parameters: time infinity, dose 25 mg/kg, route oral; settings: plasma
[25] = biological target: RAC-alpha serine/threonine-protein kinase (Homo sapiens, UniProt P31749); assay: Inhibition of AKT1
[26] = biological target: Fibroblast growth factor receptor 3 (Homo sapiens, UniProt P22607); assay: Inhibition of FGFR3
[27] = biological target: Dual specificity mitogen-activated protein kinase kinase 1 (Homo sapiens, UniProt Q02750); assay: Inhibition of MEK1
[28] = Clearance in Sprague-Dawley rat at 1 mg/kg, iv; assay type: ADME, organism-based; parameters: dose 1 mg/kg, route intravenous; settings: in vivo
[29] = biological target: Ribosomal protein S6 kinase beta-1 (Homo sapiens, UniProt P23443); assay: Inhibition of P70S6K
[30] = test system: NIH3T3; assay: Antiproliferative activity against human IGF1R expressing mouse 3T3 cells; assay type: functional, cell-based
[31] = test system: NIH3T3; assay: Inhibition of IGF1-stimulated purified AKT phosphorylation in mouse 3T3 cells; assay type: functional, cell-based
[32] = Inhibition of CDK1/cyclin B
[33] = biological target: Proto-oncogene tyrosine-protein kinase Src (Homo sapiens, UniProt P12931); assay: Inhibition of SRC
[34] = test system: COLO 205; assay: Inhibition of proliferation of human Colo205 cells; assay type: functional, cell-based
[35] = Clearance in CD1 mouse at 5 mg/kg, iv; assay type: ADME, organism-based; parameters: dose 5 mg/kg, route intravenous; settings: in vivo
[36] = test system: NIH3T3; assay: Antitumor activity in IGFR expressing mouse 3T3 cells xenografted nu/nu CD1 mouse at 25 mg/kg, po administered once daily for 14 days; assay type: functional; settings: CD1, NIH3T3, 336 h, read-out: TGI
[37] = biological target: Tyrosine-protein kinase Fyn (Homo sapiens, UniProt P06241); assay: Inhibition of FYN
[38] = Oral bioavailability in Beagle dog at 5 mg/kg; assay type: ADME, organism-based, Canis lupus familiaris; settings: in vivo
[39] = test system: Mus musculus; assay: Effect on blood glucose level in CD1 mouse at 25 mg/kg, po for 14 days; assay type: functional
[40] = biological target: Mitogen-activated protein kinase 1 (Mus musculus) (UniProt P63085); assay: Inhibition of IGF1-stimulated purified ERK2 phosphorylation in mouse 3T3 cells; assay type: cell-based; settings: NIH3T3
[41] = Cmax in CD1 mouse at 25 mg/kg, po; assay type: ADME, organism-based; parameters: dose 25 mg/kg, route oral; settings: in vivo
[42] = Induction of DNA fragmentation in human H292 cells at 10 uM relative to control; assay type: functional
[43] = Half life in CD1 mouse at 5 mg/kg, iv; assay type: ADME, organism-based; parameters: dose 5 mg/kg, route intravenous; settings: in vivo
[44] = test system: Mus musculus; assay: Effect on plasma insulin level in CD1 mouse at 25 mg/kg, po after 4 hrs; assay type: functional
[45] = Inhibition of CDK2/cyclin E
[46] = biological target: Focal adhesion kinase 1 (Homo sapiens, UniProt Q05397); assay: Inhibition of FAK
[47] = biological target: T1, Insulin-like growth factor 1 receptor (Homo sapiens, UniProt P08069); assay: Inhibition of human recombinant full length IGF1R
[48] = test system: NIH3T3; assay: Inhibition of IGF1-stimulated purified ERK1 phosphorylation in mouse 3T3 cells; assay type: functional, cell-based
[49] = Volume of distribution at steady state in Beagle dog at 2.5 mg/kg, iv; assay type: ADME, organism-based, Canis lupus familiaris; parameters: dose 2.5 mg/kg, route intravenous; settings: in vivo, read-out: Vdss
[50] = test system: HT-29; assay: Inhibition of proliferation of human HT29 cells; assay type: functional, cell-based
[51] = biological target: Tyrosine-protein kinase ABL1 (Homo sapiens, UniProt P00519); assay: Inhibition of Abl
[52] = Half life in Beagle dog at 2.5 mg/kg, iv; assay type: ADME, organism-based, Canis lupus familiaris; parameters: dose 2.5 mg/kg, route intravenous; settings: in vivo
[53] = Cmax in Sprague-Dawley rat at 50 mg/kg, po; assay type: ADME, organism-based; parameters: dose 50 mg/kg, route oral; settings: in vivo
[54] = Inhibition of CDK2/cyclin A
[55] = Clearance in Beagle dog at 2.5 mg/kg, iv; assay type: ADME, organism-based, Canis lupus familiaris; parameters: dose 2.5 mg/kg, route intravenous; settings: in vivo
[56] = test system: HT-29; assay: Induction of DNA fragmentation in human HT29 cells at 10 uM relative to control; assay type: functional
[57] = AUC (0 to infinity) in Beagle dog at 5 mg/kg, po; assay type: ADME, organism-based, Canis lupus familiaris; parameters: time infinity, dose 5 mg/kg, route oral; settings: plasma
[58] = test system: Mus musculus; assay: Increase in blood glucose level in CD1 mouse at 100 mg/kg, po for 14 days; assay type: functional
[59] = biological target: Insulin receptor (Homo sapiens, UniProt P06213); assay: Inhibition of human purified insulin receptor in biochemical assay at 100 uM ATP
[60] = test system: NIH3T3; assay: Inhibition of IGF1-induced proliferation of human IGF1R expressing mouse 3T3 cells; assay type: functional, cell-based
[61] = biological target: RAF proto-oncogene serine/threonine-protein kinase (Homo sapiens, UniProt P04049); assay: Inhibition of cRaf
[62] = Inhibition of RON at 100 uM
[63] = Inhibition of proliferation of human H292 cells; assay type: functional, cell-based; settings: NCI-H292
[64] = biological target: Protein kinase C alpha type (Homo sapiens, UniProt P17252); assay: Inhibition of PKCalpha
[65] = test system: NIH3T3; assay: Inhibition of IGF1-stimulated p70S6K phosphorylation in mouse 3T3 cells; assay type: functional, cell-based
[66] = biological target: Vascular endothelial growth factor receptor 2 (Homo sapiens, UniProt P35968); assay: Inhibition of KDR at 100 uM
[67] = biological target: Rho-associated protein kinase 2 (Homo sapiens, UniProt O75116); assay: Inhibition of Rock2
[68] = Half life in Sprague-Dawley rat at 1 mg/kg, iv; assay type: ADME, organism-based; parameters: dose 1 mg/kg, route intravenous; settings: in vivo
[69] = biological target: T1, Insulin-like growth factor 1 receptor
Description: Inhibition of human recombinant full length IGF1R expressed in mouse 3T3 cells

[70] = biological target: Receptor-type tyrosine-protein kinase FLT3 (Homo sapiens, UniProt P36888); assay: Inhibition of FLT3
[71] = test system: COLO 205; assay: Induction of DNA fragmentation in human Colo205 cells at 10 uM relative to control; assay type: functional
[72] = Plasma concentration in Beagle dog at 5 mg/kg, po after 24 hrs; assay type: ADME, organism-based, Canis lupus familiaris; parameters: dose 5 mg/kg, route oral
[73] = biological target: Inhibitor of nuclear factor kappa-B kinase subunit beta (Homo sapiens, UniProt O14920); assay: Inhibition of IKK-beta
[74] = AUC (0 to infinity) in Sprague-Dawley rat at 50 mg/kg, po; assay type: ADME, organism-based; parameters: dose 50 mg/kg, route oral, time infinity; settings: plasma
[75] = biological target: Platelet-derived growth factor receptor beta (Homo sapiens, UniProt P09619); assay: Inhibition of PDGFRbeta
[76] = biological target: Tyrosine-protein kinase Fes/Fps (Homo sapiens, UniProt P07332); assay: Inhibition of FES

T1 sequence (P08069 31-736 limits assumed): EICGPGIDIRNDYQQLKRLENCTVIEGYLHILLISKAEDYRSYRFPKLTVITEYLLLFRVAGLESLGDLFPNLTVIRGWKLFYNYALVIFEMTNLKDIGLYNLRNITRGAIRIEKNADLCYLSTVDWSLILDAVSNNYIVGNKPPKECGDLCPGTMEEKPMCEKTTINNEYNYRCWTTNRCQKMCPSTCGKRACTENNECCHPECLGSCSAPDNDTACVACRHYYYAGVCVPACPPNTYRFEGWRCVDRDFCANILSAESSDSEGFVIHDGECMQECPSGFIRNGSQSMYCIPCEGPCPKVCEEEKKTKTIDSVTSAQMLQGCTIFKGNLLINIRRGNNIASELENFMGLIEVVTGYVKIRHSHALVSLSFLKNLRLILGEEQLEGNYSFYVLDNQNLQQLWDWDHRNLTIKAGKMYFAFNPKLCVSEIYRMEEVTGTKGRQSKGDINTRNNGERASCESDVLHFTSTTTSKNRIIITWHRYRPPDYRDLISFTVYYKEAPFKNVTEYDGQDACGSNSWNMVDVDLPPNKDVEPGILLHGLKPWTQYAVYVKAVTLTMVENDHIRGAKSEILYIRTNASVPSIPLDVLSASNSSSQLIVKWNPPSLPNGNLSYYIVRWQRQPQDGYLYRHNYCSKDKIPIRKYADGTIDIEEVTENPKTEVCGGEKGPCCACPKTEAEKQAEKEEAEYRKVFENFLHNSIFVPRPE
T1 sequence (P08069 741-1367 limits assumed): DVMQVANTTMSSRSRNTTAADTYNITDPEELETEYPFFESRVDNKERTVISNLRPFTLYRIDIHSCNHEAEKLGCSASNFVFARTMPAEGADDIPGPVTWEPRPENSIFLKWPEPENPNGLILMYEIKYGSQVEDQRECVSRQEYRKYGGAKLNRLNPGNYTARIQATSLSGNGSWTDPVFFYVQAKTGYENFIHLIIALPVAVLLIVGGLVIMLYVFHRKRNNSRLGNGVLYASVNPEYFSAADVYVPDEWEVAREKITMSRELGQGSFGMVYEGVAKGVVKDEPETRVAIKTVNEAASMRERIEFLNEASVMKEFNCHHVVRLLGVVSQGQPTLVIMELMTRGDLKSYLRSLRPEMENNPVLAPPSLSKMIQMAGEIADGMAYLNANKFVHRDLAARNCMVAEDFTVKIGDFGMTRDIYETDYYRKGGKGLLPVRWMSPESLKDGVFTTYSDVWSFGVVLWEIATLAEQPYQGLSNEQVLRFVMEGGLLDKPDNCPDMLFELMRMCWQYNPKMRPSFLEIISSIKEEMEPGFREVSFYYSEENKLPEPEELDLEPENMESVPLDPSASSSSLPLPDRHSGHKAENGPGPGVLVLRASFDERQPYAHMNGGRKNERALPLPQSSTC
Cytochrome P450 3A4, sequence (P08684 whole entry): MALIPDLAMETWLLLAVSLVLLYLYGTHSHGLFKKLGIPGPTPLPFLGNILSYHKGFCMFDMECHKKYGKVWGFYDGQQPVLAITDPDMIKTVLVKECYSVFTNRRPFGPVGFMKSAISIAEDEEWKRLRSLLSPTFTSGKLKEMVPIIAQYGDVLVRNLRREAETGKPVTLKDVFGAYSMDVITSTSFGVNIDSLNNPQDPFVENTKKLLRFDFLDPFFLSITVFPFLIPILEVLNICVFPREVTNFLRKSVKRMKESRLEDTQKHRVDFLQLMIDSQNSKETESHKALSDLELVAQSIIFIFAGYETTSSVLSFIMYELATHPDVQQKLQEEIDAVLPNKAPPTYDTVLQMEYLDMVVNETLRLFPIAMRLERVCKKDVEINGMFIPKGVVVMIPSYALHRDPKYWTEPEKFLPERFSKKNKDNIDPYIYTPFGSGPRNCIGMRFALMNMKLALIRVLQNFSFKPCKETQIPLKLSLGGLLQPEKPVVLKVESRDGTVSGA
Vascular endothelial growth factor receptor 2, sequence (P35968 whole entry): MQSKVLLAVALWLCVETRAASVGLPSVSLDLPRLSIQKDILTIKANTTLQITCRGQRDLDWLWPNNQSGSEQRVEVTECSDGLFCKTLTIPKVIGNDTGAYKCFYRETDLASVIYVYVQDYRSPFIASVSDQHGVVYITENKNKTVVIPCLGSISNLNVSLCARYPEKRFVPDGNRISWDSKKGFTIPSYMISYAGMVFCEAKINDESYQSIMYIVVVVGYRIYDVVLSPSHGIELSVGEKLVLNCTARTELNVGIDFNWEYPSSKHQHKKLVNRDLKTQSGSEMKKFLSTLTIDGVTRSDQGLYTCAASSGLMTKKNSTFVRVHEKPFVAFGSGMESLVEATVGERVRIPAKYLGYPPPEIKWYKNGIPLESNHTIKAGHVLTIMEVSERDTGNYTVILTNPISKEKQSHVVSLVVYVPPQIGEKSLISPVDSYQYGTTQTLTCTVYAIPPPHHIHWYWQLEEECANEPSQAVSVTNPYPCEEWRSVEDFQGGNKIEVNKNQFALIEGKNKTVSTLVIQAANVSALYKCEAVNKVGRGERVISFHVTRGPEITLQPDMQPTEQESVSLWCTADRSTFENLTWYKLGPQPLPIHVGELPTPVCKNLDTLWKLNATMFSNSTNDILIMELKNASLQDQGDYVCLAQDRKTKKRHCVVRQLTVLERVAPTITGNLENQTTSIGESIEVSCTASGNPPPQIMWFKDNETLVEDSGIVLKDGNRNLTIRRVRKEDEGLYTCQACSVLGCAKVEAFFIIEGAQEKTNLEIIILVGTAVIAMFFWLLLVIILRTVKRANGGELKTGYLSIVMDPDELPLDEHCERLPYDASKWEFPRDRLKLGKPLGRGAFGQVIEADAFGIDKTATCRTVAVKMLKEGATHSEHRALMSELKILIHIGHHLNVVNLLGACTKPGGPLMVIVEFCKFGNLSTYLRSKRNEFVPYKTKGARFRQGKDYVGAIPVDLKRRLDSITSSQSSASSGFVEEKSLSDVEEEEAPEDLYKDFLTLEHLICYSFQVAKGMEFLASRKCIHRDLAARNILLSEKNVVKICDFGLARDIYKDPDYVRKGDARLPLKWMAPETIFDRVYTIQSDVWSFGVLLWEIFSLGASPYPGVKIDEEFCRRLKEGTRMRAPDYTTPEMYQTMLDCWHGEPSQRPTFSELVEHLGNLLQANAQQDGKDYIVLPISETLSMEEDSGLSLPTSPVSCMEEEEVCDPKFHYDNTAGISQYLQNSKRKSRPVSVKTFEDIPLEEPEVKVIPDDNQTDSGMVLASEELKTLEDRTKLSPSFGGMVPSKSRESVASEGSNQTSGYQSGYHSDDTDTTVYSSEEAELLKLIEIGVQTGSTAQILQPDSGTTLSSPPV
Tyrosine-protein kinase Fyn, sequence (P06241 whole entry): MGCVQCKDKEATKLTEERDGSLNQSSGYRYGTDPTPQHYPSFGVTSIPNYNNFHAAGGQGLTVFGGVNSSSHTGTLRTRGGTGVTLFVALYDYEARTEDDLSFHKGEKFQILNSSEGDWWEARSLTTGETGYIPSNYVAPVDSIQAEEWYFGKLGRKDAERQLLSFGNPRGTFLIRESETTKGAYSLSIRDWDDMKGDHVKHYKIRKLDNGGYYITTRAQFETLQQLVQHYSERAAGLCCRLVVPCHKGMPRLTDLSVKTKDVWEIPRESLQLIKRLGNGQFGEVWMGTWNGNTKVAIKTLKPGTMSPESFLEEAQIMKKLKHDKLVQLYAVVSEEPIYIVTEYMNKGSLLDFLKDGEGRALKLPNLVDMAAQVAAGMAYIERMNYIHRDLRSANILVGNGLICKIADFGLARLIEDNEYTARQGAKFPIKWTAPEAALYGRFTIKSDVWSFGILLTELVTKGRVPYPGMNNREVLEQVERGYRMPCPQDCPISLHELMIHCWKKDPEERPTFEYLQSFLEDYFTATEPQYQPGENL
RAF proto-oncogene serine/threonine-protein kinase, sequence (P04049 whole entry): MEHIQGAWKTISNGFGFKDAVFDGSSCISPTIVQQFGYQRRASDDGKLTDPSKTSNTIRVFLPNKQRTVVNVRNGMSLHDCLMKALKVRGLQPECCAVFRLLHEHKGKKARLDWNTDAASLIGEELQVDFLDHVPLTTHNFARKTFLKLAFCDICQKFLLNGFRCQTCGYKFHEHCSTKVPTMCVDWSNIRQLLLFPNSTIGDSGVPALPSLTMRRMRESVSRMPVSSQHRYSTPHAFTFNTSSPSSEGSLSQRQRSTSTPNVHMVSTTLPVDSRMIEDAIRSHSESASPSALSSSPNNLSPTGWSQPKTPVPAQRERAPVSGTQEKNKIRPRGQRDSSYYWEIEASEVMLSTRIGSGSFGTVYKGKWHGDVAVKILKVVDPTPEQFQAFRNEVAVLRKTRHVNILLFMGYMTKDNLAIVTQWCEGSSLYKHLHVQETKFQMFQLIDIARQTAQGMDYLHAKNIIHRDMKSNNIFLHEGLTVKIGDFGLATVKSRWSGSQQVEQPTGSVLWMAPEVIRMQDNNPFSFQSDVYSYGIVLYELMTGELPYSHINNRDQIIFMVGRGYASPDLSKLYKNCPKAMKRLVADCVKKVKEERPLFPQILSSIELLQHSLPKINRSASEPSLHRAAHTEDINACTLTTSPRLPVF
Dual specificity mitogen-activated protein kinase kinase 1, sequence (Q02750 whole entry): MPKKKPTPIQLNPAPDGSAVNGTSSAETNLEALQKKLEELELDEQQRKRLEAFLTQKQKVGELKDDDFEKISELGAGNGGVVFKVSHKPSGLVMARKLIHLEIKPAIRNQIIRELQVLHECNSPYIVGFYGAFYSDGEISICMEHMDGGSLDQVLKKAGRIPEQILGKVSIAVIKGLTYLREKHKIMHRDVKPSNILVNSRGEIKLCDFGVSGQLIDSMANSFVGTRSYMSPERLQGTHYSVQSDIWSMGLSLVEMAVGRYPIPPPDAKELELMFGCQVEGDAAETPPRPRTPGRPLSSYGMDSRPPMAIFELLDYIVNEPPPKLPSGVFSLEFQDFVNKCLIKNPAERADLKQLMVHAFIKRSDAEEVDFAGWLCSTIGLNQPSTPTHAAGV

- IC50 [1]: 15 µM
SMILES: CN(C)C[C@H]1C[C@H](c2nc(-c3ccc4ccc(-c5ccccc5)nc4c3)c3c(N)nccn32)C1

- IC50 [3]: 2.98 µM
- concentration at 24 h [4]: 400 nM
- IC50 [5]: > 10 µM
- IC50 [6]: > 10 µM
- Cmax [7]: 170 nM
- IC50 [9]: > 10 µM
- Vd [10]: 14 L/kg
- concentration at 24 h [15]: 900 nM
- bioavailability [17]: 38%
- bioavailability [20]: 100%
- Vd [22]: 10 L/kg
- IC50 [23]: > 10 µM
- AUC(0-inf) [24]: 25600 ng·h/mL
- IC50 [25]: > 10 µM
- IC50 [26]: > 10 µM
- IC50 [27]: > 10 µM
- clearance [28]: 10 mL/min/kg
- IC50 [29]: > 10 µM
- IC50 [32]: > 10 µM
- IC50 [33]: > 10 µM
- IC50 [34]: 0.93 µM
- clearance [35]: 24 mL/min/kg
- IC50 [37]: > 10 µM
- bioavailability [38]: 94%
- Activity [40]: Dose-dependent effect
- Cmax [41]: 3400 nM
- half-life [43]: 5.1 h
- IC50 [45]: > 10 µM
- IC50 [46]: > 10 µM
- IC50 [47]: 0.035 µM
- Vd [49]: 50 L/kg
- IC50 [50]: 1.26 µM
- IC50 [51]: > 10 µM
- half-life [52]: 19 h
- Cmax [53]: 1600 nM
- IC50 [54]: > 10 µM
- clearance [55]: 30 mL/min/kg
- AUC(0-inf) [57]: 3010 ng·h/mL
- IC50 [59]: 0.076 µM
- IC50 [1]: > 20 µM
- IC50 [61]: > 10 µM
- IC50 [62]: 5.9 µM
- IC50 [64]: > 10 µM
- IC50 [66]: 4.3 µM
- IC50 [67]: > 5 µM
- half-life [68]: 19.9 h
- IC50 [69]: 0.02 µM
- IC50 [70]: > 10 µM
- concentration at 24 h [72]: 90 nM
- IC50 [73]: > 10 µM
- AUC(0-inf) [74]: 37400 ng·h/mL
- IC50 [75]: > 10 µM
- IC50 [76]: > 10 µM
SMILES: Nc1nccn2c1c(-c1ccc3ccc(-c4ccccc4)nc3c1)nc2[C@H]1C[C@@H](CN2CCC2)C1
- inhibition in vivo at 75 mg/kg [2]: > 100%
- IC50 [8]: 0.69 µM
- Activity [11]: 44%
- IC50 [12]: 0.27 µM
- Activity [13]: 27 ng/mL
- Activity [14]: 16
- Activity [16]: 2.7
- Activity [18]: 14.7 ng/mL
- Activity [19]: 4
- Activity [21]: 18%
- IC50 [30]: 0.05 µM
- Activity [31]: Dose-dependent effect
- inhibition in vivo at 25 mg/kg [36]: 92%
- Activity [39]: -2.9%
- Activity [42]: 51
- Activity [44]: 13.1 ng/mL
- Activity [48]: Dose-dependent effect
- Activity [56]: 46
- Activity [58]: 75%
- IC50 [60]: 0.05 µM
- IC50 [63]: 1.95 µM
- Activity [65]: Dose-dependent effect
- Activity [71]: 0.8
